Reference: PubChem BioAssay (NCI)
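These data come from cells grown in 96-well plates and exposed to compound for 48 hours at five concentrations. The concentration for full growth arrest is given as TGI.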

Legend:
Experiment in all cases: NCI anticancer screen, dose series, 48 h
[1] = tested on: COLO 205 colon
[2] = tested on: MDA-N
[3] = tested on: LOX IMVI melanoma
[4] = tested on: MDA-MB-435
[5] = tested on: IGROV1 ovarian
[6] = tested on: HT29 colon
[7] = tested on: OVCAR-8 ovarian
[8] = tested on: HOP-62 NSCLC
[9] = tested on: NCI-H226 lung
[10] = tested on: A498 renal

| Structure (SMILES) | TGI [1] | TGI [2] | TGI [3] | TGI [4] | TGI [5] | TGI [6] | TGI [7] | TGI [8] | TGI [9] | TGI [10] |
| --- | --- | --- | --- | --- | --- | --- | --- | --- | --- | --- |
| Cc1cn(C2CC(/[N+]([O-])=N\Nc3ccc([N+](=O)[O-])cc3)C(CO)O2)c(=O)[nH]c1=O (stereo not given) | > 100 µM | > 100 µM | > 100 µM | > 100 µM | > 100 µM | > 100 µM | > 100 µM | > 100 µM | > 100 µM | > 100 µM |
| N#C[C@H](c1nc2ccccc2[nH]1)c1nc2ccccc2nc1Cl | 40 µM | > 62.9 µM | 29.3 µM | > 78 µM | 30.2 µM | > 52.2 µM | > 100 µM | > 31.1 µM | 64.7 µM | > 60.6 µM |
| COc1ccc(/C=C2\NC(=S)N(CN3CCOCC3)C2=O)cc1 | > 100 µM | > 100 µM | > 100 µM | > 100 µM | > 100 µM | > 100 µM | > 100 µM | > 100 µM | > 100 µM | > 100 µM |
| [B]C(=O)NC(CC(C)C)C(=O)NC1c2ccsc2C(=O)C1O (stereo not given) (tested in a mixture with another compound) | > 100 µM | > 100 µM | > 100 µM | > 100 µM | > 100 µM | > 100 µM | > 100 µM | > 100 µM | > 100 µM | > 100 µM |
| COc1ccc(/C=C2/C(=O)C(c3ccccc3)N(c3ccccc3)C2=O)cc1OC (stereo not given) | > 10 µM | > 10 µM | > 10 µM | > 10 µM | 2.28 µM | > 10 µM | > 10 µM | > 10 µM | > 10 µM | 2.75 µM |
| CCN(CC)C(=O)CCNC(C)Cc1c[nH]c2ccccc12 (stereo not given) | > 100 µM | > 100 µM | > 100 µM | > 100 µM | > 100 µM | > 100 µM | > 100 µM | > 100 µM | > 100 µM | > 100 µM |
| CC1(C)C/C=C\CCC(O)C(O)CCC(C)(C)C1=O (stereo not given) | > 100 µM | > 100 µM | > 100 µM | > 100 µM | > 100 µM | > 100 µM | > 100 µM | > 100 µM | > 100 µM | > 100 µM |
| CCN(CC)CCCNc1c2cc(OC)ccc2nc2cccc([N+](=O)[O-])c12 | 0.102 µM | 0.277 µM | 0.196 µM | 0.229 µM | 0.387 µM | 0.453 µM | 0.264 µM | 0.412 µM | 0.51 µM | 0.0647 µM |
| CC(C)[Si](CC1=CCCCC12C(=O)N(COCC[Si](C)(C)C)c1ccccc12)(C(C)C)C(C)C (stereo not given) | > 100 µM | > 100 µM | > 100 µM | > 100 µM | > 100 µM | > 100 µM | > 100 µM | > 100 µM | > 100 µM | > 100 µM |
| COc1ccc(OC/C(N=Cc2cccnc2)=N/NC(=O)c2ccncc2)cc1 | > 100 µM | 45.6 µM | > 100 µM | 82.1 µM | > 100 µM | > 100 µM | > 100 µM | > 100 µM | > 100 µM | > 100 µM |
| O=C(CCCN1CCC(Nc2ccc(F)cc2)(c2nnnn2C2CCCCC2)CC1)c1ccc(F)cc1 | 37.1 µM | 30.7 µM | > 100 µM | 31.5 µM | 12.3 µM | > 100 µM | 63.4 µM | 33.6 µM | 36 µM | 12.5 µM |
| O=C1OCC(CN2CCC(n3c(=O)[nH]c4ccccc43)CC2)=C1c1ccccc1 | 28.1 µM | 78.7 µM | 56.2 µM | 62.4 µM | 51.1 µM | 58.6 µM | 31.6 µM | 64.5 µM | 76.7 µM | 68.6 µM |
| CN(C)CCNc1nc2c(c(=O)n(C)c(=O)n2C)n1C | > 100 µM | > 100 µM | > 100 µM | > 100 µM | > 100 µM | > 100 µM | > 100 µM | > 100 µM | > 100 µM | > 100 µM |
| O=[N+]([O-])C(=C(\Cl)NCCO)/C(Cl)=C(/Cl)Br | 2.74 µM | 3.97 µM | 2.19 µM | 2.67 µM | 10.6 µM | 3.67 µM | 7.31 µM | 29 µM | 17.7 µM | 12 µM |
| CCOC(=O)C(/C=N/C(N)=S)=C(/O)c1ccccc1 | > 100 µM | > 100 µM | > 100 µM | > 100 µM | > 100 µM | > 100 µM | > 100 µM | > 100 µM | > 100 µM | > 100 µM |
| CCOC(=O)CCNC(=O)c1cc(C)cc2c1Oc1c(cc(C)cc1C(=O)NCCC(=O)OCC)S2 | > 100 µM | > 100 µM | > 100 µM | > 100 µM | > 100 µM | > 100 µM | > 100 µM | > 100 µM | > 100 µM | 90.8 µM |
